This is an account of results in US6448475B1, “Manipulation of tocopherol levels in transgenic plants by transformation with a synechocystis 2-methyl-6-phytylplastoquinol/2-methyl-6-solanylplastoquinol-9 methyltransferase” (The University and Community College System of Nevada, priority 1998, dated 2002).

A short description of assay [1]: In vitro 2-methyl-6-phytylplastoquinol methyltransferase assay of E. coli expressed SLL0418. Conditions: E. coli extract. It is filed as biochemical, Synechocystis. From the text: (§1) A second approach to characterizing the Synechocystis genes and proteins involved in tocopherol biosynthesis involved the expression and biochemical analysis of these genes in E. coli. The Synechocystis SLL0418 gene sequence was subcloned from pSLL0418-1 as a Nde1/Hind3 fragment into the Nde1 and Hind3 sites of the E. coli expression vector, pET30B. The resulting plasmid construct was designated p041798 and was transformed into the E. coli strain BL21(DE3)pLysS. Protein expression was induced with 1 mM isopropylthio-b-galactoside (IPTG) in the cells transformed with p041798 and cells transformed with the empty pET30B vector. Induced cultures were grown for 3 hours at 28° C. in a shaking incubator after which the cells were harvested by centrifugation at 8,000 g for 10 minutes at 4° C. and stored at […] The cell pellets were resuspended in 50 mM Tris-HCl pH 8.0, 5 mM DTT, 1 mM PMSF and homogenized with four 10 second burst with a sonicator. Triton X 100 was then added to a final concentration of 1% and the mixture was incubated on ice for 30 minutes. The insoluble material was then removed by centrifugation at 40,000 g for 30 minutes and the supernatant was saved for methyltransferase assays.
A mixture of 6 different isomers of methylphytylplastoquinone was synthesized as described by Henry et al. (1987) Biochem J 242: 367-373. […]

Assay [2] is described as follows: In vitro 2-methyl-6-solanylplastoquinol methyltransferase assay of E. coli expressed SLL0418. It is filed as biochemical, Synechocystis. The settings on record: E. coli extract.
Excerpt: as §1
The 2-methyl-6-solanylplastoquinol substrate was purified from Iris bulbs. One hundred gm of iris bulbs were homogenized in 500 mL acetone. […]

“2-methyl-6-phytylplastoquinol/2-methyl-6-solanylplastoquinol-9 methyltransferase [SLL0418]”: the “methylation of 2-methyl-6-phytylplastoquinol to form 2,3-dimethylphytlyplastoquinol” value in assay [1] (result in words) was “able to methylate”. Besides, the “amount of 14C labeled 2,3-dimethyl-6-phytylplastoquinol product produced” value in assay [1] (substrate 2-methyl-6-phytylplastoquinol, [14C-methyl]-S-adenosylmethionine, 30 minutes, room temperature) came out at 484 CPM. Besides, the “methylation of 2-methyl-6-solanylplastoquinol to form 2,3-dimethylsolanylplastoquinol” value in assay [2] (result in words) is “able to methylate”. Besides, the “amount of 14C labeled 2,3-dimethylsolanylplastoquinol product produced” value in assay [2] (substrate 2-methyl-6-solanylplastoquinol, [14C-methyl]-S-adenosylmethionine, 30 minutes, room temperature) worked out at 174 CPM.
